PubChem BioAssay (NCI)
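Each compound was tested at five concentrations against cells in 96-well plates for 48 hours. TGI: total growth inhibition.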

What was measured:
Assay in all cases: inhibition of tumour cell growth, NCI panel, 48 h
[1] = tested on: 786-0 renal
[2] = tested on: A498 renal
[3] = tested on: A549 NSCLC
[4] = tested on: ACHN renal
[5] = tested on: BT-549 breast
[6] = tested on: CAKI-1 renal
[7] = tested on: CCRF-CEM leukemia
[8] = tested on: COLO 205 colon
[9] = tested on: DU-145 prostate
[10] = tested on: EKVX NSCLC
[11] = tested on: HCC-2998 colon
[12] = tested on: HCT-116 colon
[13] = tested on: HCT-15 colon
[14] = tested on: HL-60(TB) leukemia
[15] = tested on: HOP-62 NSCLC
[16] = tested on: HOP-92 NSCLC
[17] = tested on: HS 578T breast
[18] = tested on: HT29 colon
[19] = tested on: IGROV1 ovarian
[20] = tested on: K-562 leukemia
[21] = tested on: KM12 colon
[22] = tested on: LOX IMVI melanoma
[23] = tested on: MALME-3M melanoma
[24] = tested on: MCF7 breast
[25] = tested on: MDA-MB-231 breast
[26] = tested on: MDA-MB-435
[27] = tested on: MDA-N
[28] = tested on: MOLT-4 leukemia
[29] = tested on: NCI-H226 lung
[30] = tested on: NCI-H23 lung
[31] = tested on: NCI-H460 lung
[32] = tested on: NCI-H522 lung
[33] = tested on: NCI/ADR-RES ovarian
[34] = tested on: OVCAR-3 ovarian
[35] = tested on: OVCAR-4 ovarian
[36] = tested on: OVCAR-8 ovarian
[37] = tested on: PC-3 prostate
[38] = tested on: RPMI-8226 leukemia
[39] = tested on: RXF 393 renal
[40] = tested on: SF-268 CNS
[41] = tested on: SF-295 CNS
[42] = tested on: SF-539 CNS
[43] = tested on: SK-MEL-28 melanoma
[44] = tested on: SK-MEL-5 melanoma
[45] = tested on: SK-OV-3 ovarian
[46] = tested on: SN12C renal
[47] = tested on: SNB-75 CNS
[48] = tested on: SW-620 colon
[49] = tested on: T-47D breast
[50] = tested on: TK-10 renal
[51] = tested on: U251 CNS
[52] = tested on: UACC-257 melanoma
[53] = tested on: UACC-62 melanoma
[54] = tested on: UO-31 renal
[55] = tested on: M14 melanoma
[56] = tested on: OVCAR-5 ovarian
[57] = tested on: SK-MEL-2 melanoma
[58] = tested on: SNB-19 CNS
[59] = tested on: SR leukemia

`COC(=O)C1(Cc2ccc3c(c2)CCC3)Cc2ccc3c(c2C1)CCC3` (centres undefined) showed a TGI [1] of 97.6 µM, a TGI [2] of 72.2 µM and a TGI [3] greater than 100 µM. The TGI [4] was 73.2 µM, the TGI [5] was 56.9 µM and the TGI [6] was 79.2 µM. It also gave a TGI [7] greater than 100 µM, a TGI [8] of 39.2 µM and a TGI [9] greater than 100 µM. For the same compound, the TGI [10] was greater than 100 µM, the TGI [11] was greater than 100 µM and the TGI [12] was 54.8 µM. For the same compound, the TGI [13] was greater than 100 µM, the TGI [14] was greater than 100 µM and the TGI [15] was greater than 100 µM. The TGI [16] was 98.1 µM, the TGI [17] was 45 µM and the TGI [18] was 33.9 µM. The TGI [19] was 74.6 µM, the TGI [20] was greater than 100 µM and the TGI [21] was 54 µM. It also gave a TGI [22] of 32.9 µM, a TGI [23] of 42 µM and a TGI [24] of 31.4 µM. For the same compound, the TGI [25] was 45 µM, the TGI [26] was 39 µM and the TGI [27] was 41 µM. It also gave a TGI [28] greater than 100 µM, a TGI [29] of 66 µM and a TGI [30] of 4.63 µM. It also gave a TGI [31] of 73.2 µM, a TGI [32] of 45.1 µM and a TGI [33] of 72.8 µM. The TGI [34] was 60.1 µM, the TGI [35] was 99.1 µM and the TGI [36] was greater than 100 µM. For the same compound, the TGI [37] was 55.9 µM, the TGI [38] was 46.9 µM and the TGI [39] was 83.3 µM. For the same compound, the TGI [40] was greater than 100 µM, the TGI [41] was 60.7 µM and the TGI [42] was greater than 100 µM. For the same compound, the TGI [43] was greater than 100 µM, the TGI [44] was 40.2 µM and the TGI [45] was greater than 100 µM. It also gave a TGI [46] of 56.3 µM, a TGI [47] greater than 100 µM and a TGI [48] of 69.7 µM. The TGI [49] was 27.1 µM, the TGI [50] was greater than 100 µM and the TGI [51] was 37.1 µM. For the same compound, the TGI [52] was 30.3 µM, the TGI [53] was greater than 100 µM and the TGI [54] was 74 µM.

Compound `O=c1cc(N=Nc2ccc(O)cc2)[nH]c(=O)[nH]1` has a TGI [1] greater than 100 µM, a TGI [2] greater than 100 µM and a TGI [3] greater than 100 µM. It also gave a TGI [4] greater than 100 µM, a TGI [5] greater than 100 µM and a TGI [6] greater than 100 µM. It also gave a TGI [8] greater than 100 µM, a TGI [9] greater than 100 µM and a TGI [10] greater than 100 µM. For the same compound, the TGI [11] was greater than 100 µM, the TGI [12] was greater than 100 µM and the TGI [13] was greater than 100 µM. It also gave a TGI [14] greater than 100 µM, a TGI [15] greater than 100 µM and a TGI [16] greater than 100 µM. The TGI [18] was greater than 100 µM, the TGI [19] was greater than 100 µM and the TGI [20] was greater than 100 µM. It also gave a TGI [21] greater than 100 µM, a TGI [22] greater than 100 µM and a TGI [55] greater than 100 µM. It also gave a TGI [23] of 89.2 µM, a TGI [24] greater than 100 µM and a TGI [25] greater than 100 µM. The TGI [26] was greater than 100 µM, the TGI [27] was greater than 100 µM and the TGI [28] was greater than 100 µM. For the same compound, the TGI [29] was greater than 100 µM, the TGI [30] was greater than 100 µM and the TGI [31] was greater than 100 µM. The TGI [32] was greater than 100 µM, the TGI [33] was greater than 100 µM and the TGI [34] was greater than 100 µM. The TGI [35] was greater than 100 µM, the TGI [56] was greater than 100 µM and the TGI [36] was greater than 100 µM. It also gave a TGI [37] greater than 100 µM, a TGI [38] greater than 100 µM and a TGI [39] greater than 100 µM. The TGI [40] was greater than 100 µM, the TGI [41] was greater than 100 µM and the TGI [42] was greater than 100 µM. It also gave a TGI [57] greater than 100 µM, a TGI [43] greater than 100 µM and a TGI [44] greater than 100 µM. The TGI [45] was greater than 100 µM, the TGI [46] was greater than 100 µM and the TGI [58] was greater than 100 µM. It also gave a TGI [47] of 89.9 µM, a TGI [59] greater than 100 µM and a TGI [48] greater than 100 µM. The TGI [50] was greater than 100 µM, the TGI [51] was greater than 100 µM and the TGI [52] was greater than 100 µM. The TGI [53] was greater than 100 µM and the TGI [54] was greater than 100 µM.

Work on `CC(C)(C)[Si](C)(C)OCCOCn1cc(F)c(=O)[nH]c1=O` yielded a TGI [1] greater than 100 µM, a TGI [2] greater than 100 µM and a TGI [3] greater than 100 µM. It also gave a TGI [4] greater than 100 µM, a TGI [5] greater than 100 µM and a TGI [6] greater than 100 µM. It also gave a TGI [7] greater than 100 µM, a TGI [8] greater than 100 µM and a TGI [9] greater than 100 µM. The TGI [10] was greater than 100 µM, the TGI [12] was greater than 100 µM and the TGI [13] was greater than 100 µM. It also gave a TGI [14] greater than 100 µM, a TGI [15] greater than 100 µM and a TGI [17] greater than 100 µM. It also gave a TGI [18] greater than 100 µM, a TGI [19] greater than 100 µM and a TGI [20] greater than 100 µM. The TGI [21] was greater than 100 µM, the TGI [22] was greater than 100 µM and the TGI [55] was greater than 100 µM. It also gave a TGI [23] greater than 100 µM, a TGI [24] greater than 100 µM and a TGI [26] greater than 100 µM. The TGI [27] was greater than 100 µM, the TGI [28] was greater than 100 µM and the TGI [29] was greater than 100 µM. For the same compound, the TGI [30] was greater than 100 µM, the TGI [31] was greater than 100 µM and the TGI [32] was greater than 100 µM. The TGI [33] was greater than 100 µM, the TGI [34] was greater than 100 µM and the TGI [35] was greater than 100 µM. The TGI [56] was greater than 100 µM, the TGI [36] was greater than 100 µM and the TGI [37] was greater than 100 µM. For the same compound, the TGI [38] was greater than 100 µM, the TGI [39] was greater than 100 µM and the TGI [40] was greater than 100 µM. It also gave a TGI [41] greater than 100 µM, a TGI [42] greater than 100 µM and a TGI [57] greater than 100 µM. It also gave a TGI [44] greater than 100 µM, a TGI [45] greater than 100 µM and a TGI [46] greater than 100 µM. The TGI [58] was greater than 100 µM, the TGI [47] was greater than 100 µM and the TGI [59] was greater than 100 µM. The TGI [48] was greater than 100 µM, the TGI [49] was greater than 100 µM and the TGI [50] was greater than 100 µM. The TGI [51] was greater than 100 µM, the TGI [52] was greater than 100 µM and the TGI [53] was greater than 100 µM. The TGI [54] was greater than 100 µM.

`O=C(NCCc1ccccc1)c1c(O)c2ccccc2[nH]c1=O` gave a TGI [1] greater than 100 µM, a TGI [2] greater than 100 µM and a TGI [3] greater than 100 µM. For the same compound, the TGI [4] was greater than 100 µM, the TGI [5] was greater than 100 µM and the TGI [6] was greater than 100 µM. It also gave a TGI [7] greater than 100 µM, a TGI [8] greater than 100 µM and a TGI [9] greater than 100 µM. The TGI [10] was greater than 100 µM, the TGI [11] was greater than 100 µM and the TGI [12] was greater than 100 µM. It also gave a TGI [13] greater than 100 µM, a TGI [14] greater than 100 µM and a TGI [15] greater than 100 µM. It also gave a TGI [16] greater than 100 µM, a TGI [17] greater than 100 µM and a TGI [18] greater than 100 µM. For the same compound, the TGI [19] was greater than 100 µM, the TGI [20] was greater than 100 µM and the TGI [21] was greater than 100 µM. The TGI [22] was greater than 100 µM, the TGI [23] was greater than 100 µM and the TGI [24] was greater than 100 µM. The TGI [25] was greater than 100 µM, the TGI [26] was greater than 100 µM and the TGI [27] was greater than 100 µM. It also gave a TGI [28] greater than 100 µM, a TGI [29] greater than 100 µM and a TGI [30] greater than 100 µM. For the same compound, the TGI [31] was greater than 100 µM, the TGI [32] was greater than 100 µM and the TGI [33] was greater than 100 µM. It also gave a TGI [34] greater than 100 µM, a TGI [35] greater than 100 µM and a TGI [56] greater than 100 µM. For the same compound, the TGI [36] was greater than 100 µM, the TGI [37] was greater than 100 µM and the TGI [38] was greater than 100 µM. It also gave a TGI [39] greater than 100 µM, a TGI [40] greater than 100 µM and a TGI [41] greater than 100 µM. It also gave a TGI [42] greater than 100 µM, a TGI [43] greater than 100 µM and a TGI [44] greater than 100 µM. For the same compound, the TGI [46] was greater than 100 µM, the TGI [58] was greater than 100 µM and the TGI [47] was greater than 100 µM. It also gave a TGI [59] greater than 100 µM, a TGI [48] greater than 100 µM and a TGI [50] greater than 100 µM. It also gave a TGI [51] greater than 100 µM, a TGI [52] greater than 100 µM and a TGI [54] greater than 100 µM.
